Results from paper PMC11217349, “Development of Nurr1 agonists from amodiaquine by scaffold hopping and fragment growing” (Communications Chemistry, 2024).
pEC50: −log10 of the molar value. Values joined by “and” are separate entries in the source; they are usually repeats but may differ in a detail not shown here. Equal values may be shown once.

What was measured:
N27 rat neurons = assay: WST-8 cytotoxicity assay, N27; format: cell-based
Protocol: (§1) Each sample was prepared in four biologically independent repeats. After incubation for 24 h, the medium was refreshed and 10% water-soluble tetrazolinum salt (Cell Counting Kit-8, MedChemExpress) was added to assess metabolic activity. After 4 h, absorbance was measured at 450 nm using a Tecan Spark Cyto instrument (Tecan).

HEK293T cells = assay: WST-8 cytotoxicity assay, HEK293T; format: cell-based, human; conditions: for rel. absorbance (450 nm): HEK293T, WST-8, vs DMSO ctrl
Protocol: as §1

Nurr1 = system: Nurr1; set-up: method as in PMID 26124091; conditions: read-out: EC50 (Nurr1 agonism); cited from earlier work
[1] = system: full-length human Nurr1 (NBRE); set-up: method as in earlier work; conditions: cited from earlier work
[2] = molecular target: T1, human full-length Nurr1 monomer (NBRE) (Homo sapiens, UniProt P43354); assay: Full-length Nurr1 reporter gene assay (NBRE); format: cell-based; conditions: 10 nM to 3 µM
T1 construct: The full-length human nuclear receptor Nurr1 (pcDNA3.1-hNurr1-NE; Addgene plasmid #102363); host or cells: HEK293T
From the text: (§2) Activation of full-length human Nurr1 was studied in transiently transfected HEK293T cells using the reporter plasmids pFR-Luc-NBRE[14], pFR-Luc-POMC[14] or pFR-Luc-DR5[14] each containing one copy of the respective human Nurr1 response element NBRE Nl3, NurRE, or DR5. The full-length human nuclear receptor Nurr1 (pcDNA3.1-hNurr1-NE; Addgene plasmid #102363) and, for DR5, RXRα (pSG5-hRXR)[57] were overexpressed. pRL-SV40 (Promega) was used for the normalization of transfection efficacy and to observe test compound toxicity. […] After 24 h, the medium was changed to Opti-MEM without supplements, and cells were transiently transfected using Lipofectamine LTX reagent (Invitrogen) according to the manufacturer’s protocol. Five hours after transfection, cells were incubated with the test compounds in Opti-MEM supplemented with penicillin (100 U/mL), streptomycin (100 μg/mL) and 0.1% DMSO for 16 h before luciferase activity was measured using the Dual-Glo Luciferase Assay System (Promega) according to the manufacturer’s protocol on a Tecan Spark luminometer (Tecan Deutschland GmbH). Firefly luminescence was divided by Renilla luminescence and multiplied by 1000 resulting in relative light units (RLU) to normalize for transfection efficiency and cell growth. Fold activation was obtained by dividing the mean RLU of the test compound by the mean RLU of the untreated control. All samples were tested in at least three biologically independent experiments in duplicates. For dose-response curve fitting and calculation of EC50 values, the equation “[Agonist] vs. response -- Variable slope (four parameters)” was used in GraphPad Prism (version 7.00, GraphPad Software).

[3] = molecular target: T2, human Nurr1 (hinge region and ligand binding domain) (Homo sapiens, UniProt P43354); assay: Gal4-Nurr1 hybrid reporter gene assay; format: cell-based
T2 construct: expressed in transfected cells; host or cells: HEK293T
Protocol: (§3) Nurr1 modulation was determined in a Gal4 hybrid reporter gene assay in HEK293T cells (German Collection of Microorganisms and Cell Culture GmbH, DSMZ) using pFR-Luc (Stratagene, La Jolla, CA, USA; reporter), pRL-SV40 (Promega, Madison, WI, USA; internal control) and pFA-CMV-hNurr1-LBD[14], coding for the hinge region and ligand binding domain of the canonical isoform of human Nurr1. […] After 24 h, the medium was changed to Opti-MEM without supplements, and cells were transiently transfected using Lipofectamine LTX reagent (Invitrogen, Carlsbad, CA, USA) according to the manufacturer’s protocol. Five hours after transfection, cells were incubated with the test compounds in Opti-MEM supplemented with penicillin (100 U/mL), streptomycin (100 μg/mL), and 0.1% DMSO for 16 h before luciferase activity was measured using the Dual-Glo Luciferase Assay System (Promega) according to the manufacturer’s protocol on a Tecan Spark luminometer (Tecan Deutschland GmbH, Crailsheim, Germany). Firefly luminescence was divided by Renilla luminescence and multiplied by 1000 resulting in relative light units (RLU) to normalize for transfection efficiency and cell growth. Fold activation was obtained by dividing the mean RLU of the test compound by the mean RLU of the untreated control. All samples were tested in at least three biologically independent experiments in duplicates. For dose-response curve fitting and calculation of EC50 values, the equation “[Agonist] vs. response -- Variable slope (four parameters)” was used in GraphPad Prism (version 7.00, GraphPad Software, La Jolla, CA, USA). Selectivity profiling was performed with identical procedures using pFA-CMV-Nur77-LBD[14], pFA-CMV-NOR-1-LBD[14], pFA-CMV-THRα-LBD[51], pFA-CMV-RARα-LBD[52], pFA-CMV-PPARα-LBD[53], pFA-CMV-PPARγ-LBD[53], pFA-CMV-PPARδ-LBD[53], pFA-CMV-LXRα-LBD[54], pFA-CMV-FXR-LBD[55] and pFA-CMV-hRXRα-LBD[56].

Nurr1 LBD = molecular target: T3, Nurr1 LBD (Homo sapiens, UniProt P43354); assay: Isothermal titration calorimetry (ITC); format: binding; conditions: 25 °C
T3 construct: Nurr1 LBD protein (5–30 µM, expressed as described previously[21]); made in house
Protocol: ITC experiments were conducted on an Affinity ITC instrument (TA Instruments, New Castle, DE) at 25 °C with a stirring rate of 75 rpm. Nurr1 LBD protein (5–30 µM, expressed as described previously[21]) in buffer (20 mM Tris pH 7.5, 100 mM NaCl, 5% glycerol) containing 1–4% DMSO was titrated with the test compounds (30–150 μM in the same buffer containing 1-4% DMSO) in 26 injections (1 × 1 µL, 25 × 3-4 μL) with an injection interval of 120-150 s. As control experiments, the test compounds were titrated to the buffer, and the buffer was titrated to the Nurr1 LBD protein under otherwise identical conditions. Results were analyzed using NanoAnalyze software (version 3.11.0, TA Instruments, New Castle, DE) with independent binding models.

[4] = molecular target: T4, human full-length Nurr1 homodimer (NurRE) (Homo sapiens, UniProt P43354); assay: Full-length Nurr1 reporter gene assay (NurRE); format: cell-based; conditions: 10 nM to 3 µM
T4 construct: The full-length human nuclear receptor Nurr1 (pcDNA3.1-hNurr1-NE; Addgene plasmid #102363); host or cells: HEK293T
From the text: as §2

[5] = molecular target: T5, Nurr1-RXR heterodimer (DR5) (Homo sapiens, UniProt P43354); assay: Full-length Nurr1 reporter gene assay (DR5); format: cell-based; conditions: 10 nM to 3 µM
T5 construct: The full-length human nuclear receptor Nurr1 (pcDNA3.1-hNurr1-NE; Addgene plasmid #102363); host or cells: HEK293T
Protocol: Activation of full-length human Nurr1 was studied in transiently transfected HEK293T cells using the reporter plasmids pFR-Luc-NBRE[14], pFR-Luc-POMC[14] or pFR-Luc-DR5[14] each containing one copy of the respective human Nurr1 response element NBRE Nl3, NurRE, or DR5. […] After 24 h, the medium was changed to Opti-MEM without supplements, and cells were transiently transfected using Lipofectamine LTX reagent (Invitrogen) according to the manufacturer’s protocol. Five hours after transfection, cells were incubated with the test compounds in Opti-MEM supplemented with penicillin (100 U/mL), streptomycin (100 μg/mL) and 0.1% DMSO for 16 h before luciferase activity was measured using the Dual-Glo Luciferase Assay System (Promega) according to the manufacturer’s protocol on a Tecan Spark luminometer (Tecan Deutschland GmbH). Firefly luminescence was divided by Renilla luminescence and multiplied by 1000 resulting in relative light units (RLU) to normalize for transfection efficiency and cell growth. Fold activation was obtained by dividing the mean RLU of the test compound by the mean RLU of the untreated control. All samples were tested in at least three biologically independent experiments in duplicates. For dose-response curve fitting and calculation of EC50 values, the equation “[Agonist] vs. response -- Variable slope (four parameters)” was used in GraphPad Prism (version 7.00, GraphPad Software).

NOR-1 = molecular target: T6, NOR-1 (Homo sapiens, UniProt Q92570); assay: Gal4-NOR-1 hybrid reporter gene assay; format: cell-based; conditions: 10 nM to 3 µM
T6 construct: chimeric receptors composed of the Gal4-DBD and the hinge region and LBD; expressed in transfected cells; host or cells: HEK293T
T6 sequence (Q92570 394-623 limits assumed): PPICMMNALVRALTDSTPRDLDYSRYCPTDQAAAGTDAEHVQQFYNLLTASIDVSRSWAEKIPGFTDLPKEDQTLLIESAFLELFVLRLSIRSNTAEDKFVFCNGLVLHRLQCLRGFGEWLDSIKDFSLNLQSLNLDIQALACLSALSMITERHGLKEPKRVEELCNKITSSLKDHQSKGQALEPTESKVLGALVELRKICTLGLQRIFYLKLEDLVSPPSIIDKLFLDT
Protocol: as §3

Nur77 = molecular target: T7, Nur77 (Homo sapiens, UniProt P22736); assay: Gal4-Nur77 hybrid reporter gene assay; format: cell-based; conditions: 10 nM to 3 µM
T7 construct: chimeric receptors composed of the Gal4-DBD and the hinge region and LBD; expressed in transfected cells; host or cells: HEK293T
Protocol: as §3

T2 sequence (P43354 360-595 limits assumed): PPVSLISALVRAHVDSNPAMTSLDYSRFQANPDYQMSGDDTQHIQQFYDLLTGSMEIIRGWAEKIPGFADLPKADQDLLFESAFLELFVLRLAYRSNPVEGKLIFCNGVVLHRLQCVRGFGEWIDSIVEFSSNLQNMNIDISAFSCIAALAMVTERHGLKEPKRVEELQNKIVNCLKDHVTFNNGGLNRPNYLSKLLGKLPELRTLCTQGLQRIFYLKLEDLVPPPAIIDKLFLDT
T4 sequence (P43354 whole entry): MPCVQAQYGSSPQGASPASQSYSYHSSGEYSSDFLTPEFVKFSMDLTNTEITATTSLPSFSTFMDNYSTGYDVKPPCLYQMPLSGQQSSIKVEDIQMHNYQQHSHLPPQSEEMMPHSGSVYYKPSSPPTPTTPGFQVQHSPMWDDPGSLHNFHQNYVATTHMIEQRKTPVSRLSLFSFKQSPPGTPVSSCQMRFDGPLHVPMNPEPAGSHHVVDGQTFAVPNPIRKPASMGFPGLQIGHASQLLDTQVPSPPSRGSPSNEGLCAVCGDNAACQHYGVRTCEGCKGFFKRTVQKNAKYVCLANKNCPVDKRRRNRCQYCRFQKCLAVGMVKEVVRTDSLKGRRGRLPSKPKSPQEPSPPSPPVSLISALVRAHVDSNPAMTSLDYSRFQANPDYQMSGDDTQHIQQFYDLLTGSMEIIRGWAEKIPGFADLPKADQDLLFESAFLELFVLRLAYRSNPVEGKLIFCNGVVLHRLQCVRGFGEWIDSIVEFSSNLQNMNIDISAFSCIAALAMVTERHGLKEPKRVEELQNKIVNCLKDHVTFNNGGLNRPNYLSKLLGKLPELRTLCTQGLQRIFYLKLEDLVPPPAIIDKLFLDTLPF
T5 sequence (P43354 whole entry): as above
T5 sequence (P19793 whole entry partner): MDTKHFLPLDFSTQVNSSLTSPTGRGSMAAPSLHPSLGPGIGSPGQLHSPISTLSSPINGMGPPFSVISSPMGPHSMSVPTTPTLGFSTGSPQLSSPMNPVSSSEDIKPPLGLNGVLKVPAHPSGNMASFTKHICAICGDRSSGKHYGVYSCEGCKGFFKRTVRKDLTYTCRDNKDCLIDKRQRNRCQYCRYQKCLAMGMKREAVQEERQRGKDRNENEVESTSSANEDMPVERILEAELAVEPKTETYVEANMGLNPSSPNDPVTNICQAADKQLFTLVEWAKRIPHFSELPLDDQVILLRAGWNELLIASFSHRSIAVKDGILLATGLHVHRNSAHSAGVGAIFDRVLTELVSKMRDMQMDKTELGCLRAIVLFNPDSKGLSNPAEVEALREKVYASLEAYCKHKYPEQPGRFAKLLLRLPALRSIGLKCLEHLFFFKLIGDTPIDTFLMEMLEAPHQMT
T1 sequence (P43354 whole entry): as the sequence (P43354 whole entry) above
T7 sequence (P22736 360-595 limits assumed): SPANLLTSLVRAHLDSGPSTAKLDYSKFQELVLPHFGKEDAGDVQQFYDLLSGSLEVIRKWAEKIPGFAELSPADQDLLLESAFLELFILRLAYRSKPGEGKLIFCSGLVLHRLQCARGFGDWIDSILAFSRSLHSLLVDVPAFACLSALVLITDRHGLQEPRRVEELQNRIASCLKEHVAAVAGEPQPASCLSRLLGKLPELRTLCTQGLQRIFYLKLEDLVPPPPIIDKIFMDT
T3 sequence (P43354 360-595 limits assumed): as the sequence (P43354 360-595 limits assumed) above

| activation of full-length Nurr1 on NBRE [2] | activation of Nurr1 ([3]; Gal4 hybrid reporter, 10 nM to 3 µM) | Kd (Nurr1 LBD) (Nurr1 LBD) | activation of full-length Nurr1 on NurRE [4] | activation of full-length Nurr1 on DR5 [5] | activation of NOR1 (NOR-1) | activation of Nur77 (Nur77) | SMILES | rel. absorbance (450 nm) (N27 rat neurons; N27, 10 µM, WST-8, vs DMSO ctrl) | rel. absorbance (450 nm) / remaining metabolic activity (N27 rat neurons; N27, 30 µM, WST-8, vs DMSO ctrl) | toxicity (WST-8) (N27 rat neurons; N27 rat neurons, 24 h) | toxicity (WST-8) (HEK293T cells; HEK293T cells, 24 h) | rel. absorbance (450 nm) (HEK293T cells; 10 µM) | rel. absorbance (450 nm) (HEK293T cells; 30 µM) [%] | pEC50 (Nurr1) | pEC50 [1] | cytotoxicity in reporter gene assays ([3]; concentrations higher than 3 µM, drop in renilla luciferase control, HEK293T) |
| --- | --- | --- | --- | --- | --- | --- | --- | --- | --- | --- | --- | --- | --- | --- | --- | --- |
|  |  |  |  |  |  |  | CCN(CC)Cc1cc(Nc2ccnc3cc(Cl)ccc23)ccc1O [AQ, amodiaquine] | 37% and 39% and 40% | 21% and 22% and 23% | toxic | toxic | 75% and 70% | 47 | ~4.70 |  |  |
| no effect and no | No activation | potential weak binding | no effect and no | no effect and no | No activation | No activation | CC(C)(O)c1cccc(-c2ccc3nc(-c4ccc(Cl)cc4)cn3c2)c1 [SA00025, reference compound] |  |  |  |  |  |  |  | 6.66 | considerably cytotoxic |
